Experimental data taken from patent US20240316060A1, “LASER AND BCL-2 INHIBITORS COMBINATION TO TREAT SOLID TUMORS” (Board of Regents, The University of Texas System, priority 2023, published 2024).

test system: 3D spheroids; assay: Annexin-V assay in 3D spheroids (flow-cytometry); format: cell-based; settings: without laser
From the text: Annexin-V Assay in 3D Spheroids
Table 2 represents the flow-cytometry of solid tumors treated with various modalities including positive controls (DMSO and H2O2) compared with boron nitride/navitoclax formulations with and without laser excitation.

Going from `C[S+](C)[O-]` [DMSO] to `CC1(C)CCC(c2ccc(Cl)cc2)=C(CN2CCN(c3ccc(C(=O)NS(=O)(=O)c4ccc(N[C@H](CCN5CCOCC5)CSc5ccccc5)c(S(=O)(=O)C(F)(F)F)c4)cc3)CC2)C1` [Free NAVI, Navitoclax], the Early apoptosis rises from 9.51% to 32.04%.

In the case of `OO` [H2O2], the Early apoptosis is reported as 58.37%.

First: C[S+](C)[O-] [DMSO]
Second: CC1(C)CCC(c2ccc(Cl)cc2)=C(CN2CCN(c3ccc(C(=O)NS(=O)(=O)c4ccc(N[C@H](CCN5CCOCC5)CSc5ccccc5)c(S(=O)(=O)C(F)(F)F)c4)cc3)CC2)C1 [Free NAVI, Navitoclax]
The Late apoptosis of the first is lower: 5.23% for the first, 9.64% for the second.

Work on `OO` [H2O2] yielded a Late apoptosis of 40.12%.

Going from `C[S+](C)[O-]` [DMSO] to `CC1(C)CCC(c2ccc(Cl)cc2)=C(CN2CCN(c3ccc(C(=O)NS(=O)(=O)c4ccc(N[C@H](CCN5CCOCC5)CSc5ccccc5)c(S(=O)(=O)C(F)(F)F)c4)cc3)CC2)C1` [Free NAVI, Navitoclax], the Live falls from 85% to 58%.

`OO` [H2O2] showed a Live of 1%.
